In assay [1] the target is Aurora kinase B (Homo sapiens, UniProt Q96GD4). The assay can be described thus: Selectivity interaction (KinomeScan (DiscoverX)) EUB0001619a AURKB. The note with it: at 1 µM.
Assay [2] has as its target Receptor-interacting serine/threonine-protein kinase 2 (Homo sapiens, UniProt O43353). The note with it: at 10 µM.
In assay [3] the target is TRAF2 and NCK-interacting protein kinase (Homo sapiens) (UniProt Q9UKE5). The assay can be described thus: Selectivity interaction (KinomeScan (DiscoverX)) EUB0000695a TNIK. The note with it: at 100 nM.
The target in assay [4] is T1, Serine/threonine-protein kinase Nek11 (Homo sapiens) (UniProt Q8NG66).
T1 sequence (whole entry): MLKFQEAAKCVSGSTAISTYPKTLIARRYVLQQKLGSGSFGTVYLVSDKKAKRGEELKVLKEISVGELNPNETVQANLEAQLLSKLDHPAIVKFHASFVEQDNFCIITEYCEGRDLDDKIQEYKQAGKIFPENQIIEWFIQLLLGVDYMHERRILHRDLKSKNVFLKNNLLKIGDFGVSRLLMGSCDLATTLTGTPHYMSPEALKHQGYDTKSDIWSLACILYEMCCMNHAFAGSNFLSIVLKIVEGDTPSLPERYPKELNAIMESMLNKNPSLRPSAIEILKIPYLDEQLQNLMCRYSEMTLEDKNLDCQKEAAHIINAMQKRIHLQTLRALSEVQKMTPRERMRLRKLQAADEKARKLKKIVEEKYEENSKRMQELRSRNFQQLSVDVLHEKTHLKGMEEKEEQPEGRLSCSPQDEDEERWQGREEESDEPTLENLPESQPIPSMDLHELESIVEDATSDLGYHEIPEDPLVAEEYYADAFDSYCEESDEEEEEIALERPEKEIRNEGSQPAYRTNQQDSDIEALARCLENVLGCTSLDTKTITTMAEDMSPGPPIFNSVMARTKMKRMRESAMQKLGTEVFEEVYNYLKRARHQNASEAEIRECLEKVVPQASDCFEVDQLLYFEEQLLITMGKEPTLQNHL
Particulars: at 10 µM.

The target in assay [5] is Myosin light chain kinase 2, skeletal/cardiac muscle (Homo sapiens) (UniProt Q9H1R3). The note with it: at 10 µM.
Assay [6] addresses T2, Cyclin-G-associated kinase (Homo sapiens) (UniProt O14976).
T2 sequence (whole entry): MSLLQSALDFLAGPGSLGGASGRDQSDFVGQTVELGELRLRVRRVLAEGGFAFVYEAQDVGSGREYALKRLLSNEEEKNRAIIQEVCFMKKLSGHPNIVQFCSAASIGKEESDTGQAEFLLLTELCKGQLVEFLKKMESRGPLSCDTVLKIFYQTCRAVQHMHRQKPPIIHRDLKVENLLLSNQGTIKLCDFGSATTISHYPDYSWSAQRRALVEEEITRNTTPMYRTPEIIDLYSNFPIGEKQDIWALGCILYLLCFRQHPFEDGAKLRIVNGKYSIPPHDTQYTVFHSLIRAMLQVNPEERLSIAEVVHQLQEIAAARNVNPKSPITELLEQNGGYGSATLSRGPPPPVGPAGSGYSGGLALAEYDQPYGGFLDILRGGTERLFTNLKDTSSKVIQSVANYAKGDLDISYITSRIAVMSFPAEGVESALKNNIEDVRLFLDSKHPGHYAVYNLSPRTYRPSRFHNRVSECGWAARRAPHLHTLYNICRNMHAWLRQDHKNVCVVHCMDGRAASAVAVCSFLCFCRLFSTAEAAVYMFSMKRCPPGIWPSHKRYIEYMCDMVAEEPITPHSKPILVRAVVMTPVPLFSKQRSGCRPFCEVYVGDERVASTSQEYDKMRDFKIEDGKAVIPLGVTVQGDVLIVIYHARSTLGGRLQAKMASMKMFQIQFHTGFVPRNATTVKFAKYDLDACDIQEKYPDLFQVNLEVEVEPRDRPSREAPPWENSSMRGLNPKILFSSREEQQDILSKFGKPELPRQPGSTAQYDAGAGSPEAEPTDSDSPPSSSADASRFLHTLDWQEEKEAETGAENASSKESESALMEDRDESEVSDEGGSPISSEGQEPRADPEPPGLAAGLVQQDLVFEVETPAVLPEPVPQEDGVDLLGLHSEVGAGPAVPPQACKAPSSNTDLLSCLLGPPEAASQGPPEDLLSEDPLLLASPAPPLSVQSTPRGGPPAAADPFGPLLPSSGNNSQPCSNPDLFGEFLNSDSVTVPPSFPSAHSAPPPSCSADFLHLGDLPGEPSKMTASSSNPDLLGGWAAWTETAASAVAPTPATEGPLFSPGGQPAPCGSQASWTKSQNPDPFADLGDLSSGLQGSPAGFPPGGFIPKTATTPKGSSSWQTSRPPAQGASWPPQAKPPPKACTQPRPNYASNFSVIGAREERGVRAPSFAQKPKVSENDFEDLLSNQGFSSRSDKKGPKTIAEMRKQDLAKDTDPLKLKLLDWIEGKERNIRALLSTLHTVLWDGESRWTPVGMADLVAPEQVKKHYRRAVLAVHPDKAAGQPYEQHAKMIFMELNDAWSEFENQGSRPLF
The note with it: at 10 µM.

Assay [7] concerns the target Calcium/calmodulin-dependent protein kinase type 1 (Homo sapiens) (UniProt Q14012). As to the kind of experiment: Selectivity interaction (KinomeScan (DiscoverX)) EUB0000045b CAMK1.
Assay [8] addresses Serine/threonine-protein kinase pim-1 (Homo sapiens, UniProt P11309). The assay can be described thus: Selectivity interaction (KinomeScan (DiscoverX)) EUB0000045b PIM1.
Assay [9] has as its target Bromodomain-containing protein 2 (Homo sapiens) (UniProt P25440). The assay can be described thus: Selectivity interaction (Bromodomain panel (DSF asssay)) EUB0000270b BRD2.

Chain of Calcium/calmodulin-dependent protein kinase type 1 (Homo sapiens) (Q14012 whole entry, looked up): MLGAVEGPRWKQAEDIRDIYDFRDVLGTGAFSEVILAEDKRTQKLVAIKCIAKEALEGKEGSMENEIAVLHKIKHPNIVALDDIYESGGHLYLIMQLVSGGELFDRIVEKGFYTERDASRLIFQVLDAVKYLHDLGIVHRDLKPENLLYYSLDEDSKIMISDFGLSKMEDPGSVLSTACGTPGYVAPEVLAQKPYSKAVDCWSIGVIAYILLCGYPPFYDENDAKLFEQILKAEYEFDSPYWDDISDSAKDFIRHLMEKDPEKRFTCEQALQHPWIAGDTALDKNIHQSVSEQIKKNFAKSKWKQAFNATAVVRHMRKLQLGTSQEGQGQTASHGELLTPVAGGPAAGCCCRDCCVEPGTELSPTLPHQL
Chain of Serine/threonine-protein kinase pim-1 (P11309 whole entry, looked up): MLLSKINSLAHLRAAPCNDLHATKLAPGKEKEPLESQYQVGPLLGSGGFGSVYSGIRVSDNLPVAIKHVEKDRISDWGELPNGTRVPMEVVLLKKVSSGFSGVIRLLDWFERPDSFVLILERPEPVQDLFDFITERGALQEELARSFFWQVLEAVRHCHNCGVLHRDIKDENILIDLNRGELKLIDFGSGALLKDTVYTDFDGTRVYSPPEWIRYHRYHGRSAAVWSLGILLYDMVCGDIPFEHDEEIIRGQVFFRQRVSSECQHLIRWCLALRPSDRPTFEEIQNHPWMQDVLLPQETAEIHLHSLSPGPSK
Chain of Receptor-interacting serine/threonine-protein kinase 2 (O43353 whole entry): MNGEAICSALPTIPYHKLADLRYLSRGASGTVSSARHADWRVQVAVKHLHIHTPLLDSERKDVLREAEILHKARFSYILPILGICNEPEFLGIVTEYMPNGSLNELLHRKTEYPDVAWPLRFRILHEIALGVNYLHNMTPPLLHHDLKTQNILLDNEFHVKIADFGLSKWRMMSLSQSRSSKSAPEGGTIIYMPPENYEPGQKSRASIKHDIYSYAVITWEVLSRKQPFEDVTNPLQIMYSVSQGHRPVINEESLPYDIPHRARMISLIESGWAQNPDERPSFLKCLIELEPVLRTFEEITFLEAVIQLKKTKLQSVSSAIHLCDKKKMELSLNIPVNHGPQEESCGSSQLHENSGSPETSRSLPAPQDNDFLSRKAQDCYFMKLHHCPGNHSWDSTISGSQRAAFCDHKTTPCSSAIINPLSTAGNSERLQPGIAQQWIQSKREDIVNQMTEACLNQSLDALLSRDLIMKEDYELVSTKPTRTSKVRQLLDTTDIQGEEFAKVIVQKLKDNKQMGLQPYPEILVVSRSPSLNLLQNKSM
Chain of Bromodomain-containing protein 2 (Homo sapiens) (P25440 whole entry, looked up): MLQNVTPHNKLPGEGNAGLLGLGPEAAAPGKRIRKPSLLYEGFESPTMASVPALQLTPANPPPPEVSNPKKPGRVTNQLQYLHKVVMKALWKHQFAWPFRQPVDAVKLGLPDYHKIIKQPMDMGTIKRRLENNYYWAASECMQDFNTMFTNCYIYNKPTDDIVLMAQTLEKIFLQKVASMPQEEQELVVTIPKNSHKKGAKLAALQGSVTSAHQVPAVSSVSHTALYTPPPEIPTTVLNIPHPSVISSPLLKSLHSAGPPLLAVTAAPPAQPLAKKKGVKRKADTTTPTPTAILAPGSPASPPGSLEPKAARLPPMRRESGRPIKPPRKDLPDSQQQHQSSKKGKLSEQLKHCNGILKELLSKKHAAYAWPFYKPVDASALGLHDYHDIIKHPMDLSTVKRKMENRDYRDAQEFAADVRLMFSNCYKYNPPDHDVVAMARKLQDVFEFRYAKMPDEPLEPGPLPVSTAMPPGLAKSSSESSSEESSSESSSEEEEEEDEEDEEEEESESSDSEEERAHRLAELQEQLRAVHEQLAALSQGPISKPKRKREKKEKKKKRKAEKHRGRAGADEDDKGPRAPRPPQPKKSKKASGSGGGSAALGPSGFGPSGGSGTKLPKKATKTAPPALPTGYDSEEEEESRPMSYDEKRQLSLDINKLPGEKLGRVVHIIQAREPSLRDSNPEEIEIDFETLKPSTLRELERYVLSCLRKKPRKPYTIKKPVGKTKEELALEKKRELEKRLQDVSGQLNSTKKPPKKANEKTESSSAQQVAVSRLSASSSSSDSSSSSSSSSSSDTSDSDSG
Chain of Aurora kinase B (Q96GD4 whole entry): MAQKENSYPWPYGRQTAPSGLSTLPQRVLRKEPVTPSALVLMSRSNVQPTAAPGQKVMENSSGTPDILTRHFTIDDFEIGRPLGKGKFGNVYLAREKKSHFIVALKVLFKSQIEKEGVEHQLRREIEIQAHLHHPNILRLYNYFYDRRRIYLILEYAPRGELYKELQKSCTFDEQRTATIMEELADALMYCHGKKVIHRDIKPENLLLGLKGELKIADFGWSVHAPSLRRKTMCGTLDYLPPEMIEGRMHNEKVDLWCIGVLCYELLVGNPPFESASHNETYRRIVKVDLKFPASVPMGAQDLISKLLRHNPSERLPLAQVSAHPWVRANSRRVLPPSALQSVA
Chain of TRAF2 and NCK-interacting protein kinase (Homo sapiens) (Q9UKE5 whole entry, looked up): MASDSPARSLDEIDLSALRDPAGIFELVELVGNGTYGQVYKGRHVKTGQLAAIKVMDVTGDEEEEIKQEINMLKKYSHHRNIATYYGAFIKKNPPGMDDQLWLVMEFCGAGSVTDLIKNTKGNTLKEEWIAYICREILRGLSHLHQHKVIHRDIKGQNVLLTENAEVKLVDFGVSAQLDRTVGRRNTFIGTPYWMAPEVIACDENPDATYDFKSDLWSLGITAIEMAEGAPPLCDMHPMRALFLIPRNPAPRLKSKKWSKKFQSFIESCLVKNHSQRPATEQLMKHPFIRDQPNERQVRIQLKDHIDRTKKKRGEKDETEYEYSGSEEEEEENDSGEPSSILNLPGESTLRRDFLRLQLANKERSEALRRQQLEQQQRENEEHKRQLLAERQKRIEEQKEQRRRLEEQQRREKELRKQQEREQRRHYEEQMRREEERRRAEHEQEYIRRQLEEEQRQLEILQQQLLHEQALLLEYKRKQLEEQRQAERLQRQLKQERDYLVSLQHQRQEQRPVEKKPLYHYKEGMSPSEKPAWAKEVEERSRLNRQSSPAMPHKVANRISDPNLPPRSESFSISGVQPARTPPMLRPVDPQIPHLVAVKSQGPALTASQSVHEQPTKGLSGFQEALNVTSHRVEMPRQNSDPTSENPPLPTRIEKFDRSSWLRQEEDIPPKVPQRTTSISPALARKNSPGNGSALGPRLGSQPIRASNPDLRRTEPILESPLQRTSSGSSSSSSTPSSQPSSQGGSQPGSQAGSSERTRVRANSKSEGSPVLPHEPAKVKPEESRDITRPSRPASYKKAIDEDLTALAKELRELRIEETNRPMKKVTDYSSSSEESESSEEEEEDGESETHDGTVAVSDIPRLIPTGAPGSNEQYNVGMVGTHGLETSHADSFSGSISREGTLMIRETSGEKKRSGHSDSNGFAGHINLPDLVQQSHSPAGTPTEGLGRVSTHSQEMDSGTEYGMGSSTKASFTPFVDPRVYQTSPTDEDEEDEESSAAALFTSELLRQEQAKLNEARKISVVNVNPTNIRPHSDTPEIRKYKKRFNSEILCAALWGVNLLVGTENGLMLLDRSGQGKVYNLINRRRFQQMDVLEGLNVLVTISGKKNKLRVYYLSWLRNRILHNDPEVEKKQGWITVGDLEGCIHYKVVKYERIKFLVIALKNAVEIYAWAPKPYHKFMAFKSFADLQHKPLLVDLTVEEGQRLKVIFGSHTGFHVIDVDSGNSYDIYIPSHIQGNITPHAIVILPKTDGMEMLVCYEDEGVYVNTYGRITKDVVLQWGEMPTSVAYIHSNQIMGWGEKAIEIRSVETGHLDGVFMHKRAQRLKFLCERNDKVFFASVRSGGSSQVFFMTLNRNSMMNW
Chain of Myosin light chain kinase 2, skeletal/cardiac muscle (Homo sapiens) (Q9H1R3 whole entry): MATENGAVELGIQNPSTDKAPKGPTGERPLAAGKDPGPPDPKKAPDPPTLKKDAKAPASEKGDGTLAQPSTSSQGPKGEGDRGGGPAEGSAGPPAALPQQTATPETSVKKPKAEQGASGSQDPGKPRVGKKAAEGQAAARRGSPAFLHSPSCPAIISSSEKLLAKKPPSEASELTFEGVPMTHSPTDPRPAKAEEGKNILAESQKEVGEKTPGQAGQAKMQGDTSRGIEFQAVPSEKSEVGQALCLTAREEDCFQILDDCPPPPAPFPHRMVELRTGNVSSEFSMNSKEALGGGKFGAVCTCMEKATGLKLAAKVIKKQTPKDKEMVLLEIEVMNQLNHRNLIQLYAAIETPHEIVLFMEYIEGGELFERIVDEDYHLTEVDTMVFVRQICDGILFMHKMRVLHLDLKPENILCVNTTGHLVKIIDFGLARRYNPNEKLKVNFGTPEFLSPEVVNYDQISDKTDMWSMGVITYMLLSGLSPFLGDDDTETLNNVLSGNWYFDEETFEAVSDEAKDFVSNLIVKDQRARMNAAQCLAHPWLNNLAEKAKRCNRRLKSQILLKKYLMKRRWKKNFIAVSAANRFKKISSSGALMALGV

The compound `N#Cc1cccc(-c2c[nH]c3ncnc(N4CCOCC4)c23)c1` showed a % of control in assay [1] of 26%.

In turn, `CCN(CC)CCCCNc1ncc2cc(-c3cc(OC)cc(OC)c3)c(NC(=O)NC(C)(C)C)nc2n1` showed a % of control in assay [2] of 100%.

In turn, `Cc1cc(F)c(C(=O)Nc2cccc(-c3nncn3C(C)C)n2)cc1-n1cnc(C2CC2)c1` yielded a % of control in assay [3] of 78%.

For the compound `Cc1cc([C@@H](C)Nc2ccccc2C(=O)O)c2nc(N3CCOCC3)cc(=O)n2c1` [AZD-6482], the % of control in [4] is 100%; in [5], 100%; in [6] it was 75%.

For the compound `C=CC(=O)Nc1cc(-n2c(=O)ccc3cnc4ccc(-c5ccc(NS(C)(=O)=O)cc5)cc4c32)ccc1C`, the % of control in [7] (at 1 µM) is 100%; in assay [7] (at 10 µM), 88%; in assay [8] (at 1 µM), 100%; in assay [8] (at 10 µM) it was 86%.

For the compound `Cc1cc(CN)cc(C)c1-c1ncn(C)c1-c1cncn1C`, the dTM in [9] was -1.04 K.
